Tested on: A375 multi-cell spheroids with HUVEC/MSC, viability
Assay: Anticancer human tumor A375 cell line growth inhibition [GQUAD];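 further: spheroids exposed to compounds for seven days before readout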
Settings: for IC50: curve of first compound; for viability, T/C: stronger effect = lower value; active means viability on the fitted dose curve at most 10% of control; inactive means the rest
From the text: DNA G-quadruplex Stabilizer Agents in Combinations in Complex Spheroids
A high-throughput screen of multi-cell type tumor spheroids was designed to identify active combinations of DNA G-quadruplex stabilizer agents and targeted small molecules. Complex spheroids include a stromal component modeled by human endothelial cells (HUVEC) and fibroblasts modeled by human mesenchymal stem cells (MSCs). The concentration ranges selected for each drug and investigational agent were based upon clinically achievable concentrations if the clinical Cmax of the agent was known.
Compounds. The drugs and investigational agents: pidnarulex (CX-5461; NSC782164), APTO-253 (NSC789042), BRACO-19 (NSC847499), peposertib (NSC802822), ceralasertib (NSC780249), elimusertib (NSC800525), camonsertib (NSC841442), AZD-1390 (NSC803789), olaparib (NSC753686), talazoparib (NSC767125), ART-558 (NSC835418), sotorasib (NSC818433), MRTX-1133 (NSC836407), SN-38 (NSC673596), topotecan (NSC609699), etoposide (NSC141540), doxorubicin (NSC123127), gemcitabine (NSC613327), 5-fluorouracil (NSC19893), paclitaxel (NSC125973), vemurafenib (NSC761431), panobinostat (NSC761190), R-306465 (JNJ-16241199; NSC773264), adavosertib (NSC754352), TP-3654 (NSC805149), carboplatin (NSC241240), KSQ-4279 (NSC840948), and staurosporine (NSC755774) were obtained from the National Cancer Institute (NCI) Developmental Therapeutics Program Chemical Repository (34). The FDA-approved anticancer drug set is available from the NCI Developmental Therapeutics Program. […] The stock solutions were prepared in dimethyl sulfoxide (DMSO, Sigma-Aldrich, St. Louis, MO, cat. D2650) at 800-fold the tested concentration and stored at -70 degrees C prior to their use. All drugs and investigational agents were tested over a range starting from a high concentration at or near the clinical Cmax and decreasing in half-log increments. If the clinical Cmax for an agent had not been determined, the highest concentration tested was 10 microM.
2.3 Cell Culture. All cells were maintained in an incubator at 37 degrees C and 5% CO2 with 95% humidity. The PDC lines were cultured according to standard operating procedures established by the NCI PDMR. All PDCs were thawed and cultured in Matrigel-coated flasks prepared with a working solution of 1X Ham's F-12 nutrient mix, without supplementation (Invitrogen, cat. 11765054), 100 U/mL penicillin-streptomycin (Invitrogen, cat. 15140122), and 2.5% Matrigel (Corning Inc., cat. 354248) for the first three passages. The 857933-349-R-J2-PDC line was cultured in 6C/Colon 1B media, which includes advanced DMEM/F-12 (Thermo Fisher Scientific, cat. 12634028), 10 mM HEPES (Thermo Fisher Scientific, cat. 15630080), 1X GlutaMAX supplement (Thermo Fisher Scientific, cat. 35050061), 0.1 mg/mL primocin (InvivoGen, cat. ant-pm-2), 10% defined fetal bovine serum, heat inactivated (HyClone Laboratories Inc., cat. SH30070.03HI), 50% L-WRN conditioned media (ATCC, cat. CRL-3276), 1.25 mM N-Acetyl-L-cysteine (Sigma-Aldrich, cat. A9165), 10 mM nicotinamide (Sigma-Aldrich, cat. N0636), 1X B-27 supplement (Thermo Fisher Scientific, cat. 17504044), 1X N-2 supplement (Thermo Fisher Scientific, cat. 17502048), 10 microM Y-27632 dihydrochloride (Tocris Bioscience, cat. 1254), and 50 ng/mL human EGF recombinant protein (Thermo Fisher Scientific, cat. PHG0311). The 485176-168-R4-J1-PDC line was cultured in Panc media, which includes all 6C/Colon 1B media components plus 100 ng/mL human FGF-10 (Thermo Fisher Scientific, cat. 100-26), 500 nM SB-431542 (Selleckchem, cat. S1067), and gastrin (Tocris, cat. 3006).
[…]

[1] = second compound 0.0316 µM, first compound 0.0316 µM
[2] = second compound 0.0316 µM, first compound 0.1 µM
[3] = second compound 0.0316 µM, first compound 0.316 µM
[4] = second compound 0.0316 µM, first compound 1 µM
[5] = second compound 0.0316 µM, first compound 3.16 µM
[6] = second compound 0.0316 µM, first compound 10 µM
[7] = second compound 0.1 µM, first compound 0.0316 µM
[8] = second compound 0.1 µM, first compound 0.1 µM
[9] = second compound 0.1 µM, first compound 0.316 µM
[10] = second compound 0.1 µM, first compound 1 µM
[11] = second compound 0.1 µM, first compound 3.16 µM
[12] = second compound 0.1 µM, first compound 10 µM
[13] = second compound 0.316 µM, first compound 0.0316 µM
[14] = second compound 0.316 µM, first compound 0.1 µM
[15] = second compound 0.316 µM, first compound 0.316 µM
[16] = second compound 0.316 µM, first compound 1 µM
[17] = second compound 0.316 µM, first compound 3.16 µM
[18] = second compound 0.316 µM, first compound 10 µM
[19] = second compound 1 µM, first compound 0.0316 µM
[20] = second compound 1 µM, first compound 0.1 µM
[21] = second compound 1 µM, first compound 0.316 µM
[22] = second compound 1 µM, first compound 1 µM
[23] = second compound 1 µM, first compound 3.16 µM
[24] = second compound 1 µM, first compound 10 µM
[25] = second compound 3.16 µM, first compound 0.0316 µM
[26] = second compound 3.16 µM, first compound 0.1 µM
[27] = second compound 3.16 µM, first compound 0.316 µM
[28] = second compound 3.16 µM, first compound 1 µM
[29] = second compound 3.16 µM, first compound 3.16 µM
[30] = second compound 3.16 µM, first compound 10 µM
[31] = second compound 10 µM, first compound 0.0316 µM
[32] = second compound 10 µM, first compound 0.1 µM
[33] = second compound 10 µM, first compound 0.316 µM
[34] = second compound 10 µM, first compound 1 µM
[35] = second compound 10 µM, first compound 3.16 µM
[36] = second compound 10 µM, first compound 10 µM

CC1COCCN1c1cc(C2(O)CC3CCC(C2)O3)c2cnn(-c3ccn[nH]3)c2n1 (stereo unspecified) + CN(C)c1ccc(Nc2c3ccc(NC(=O)CCN4CCCC4)cc3nc3cc(NC(=O)CCN4CCCC4)ccc23)cc1
226 nM: IC50 (second compound 3.16 µM)
inactive: viability, T/C [1] 94.4% | viability, T/C [2] 70.8% | viability, T/C [3] 36.1% | viability, T/C [4] 15.5% | viability, T/C [7] 97.4% | viability, T/C [8] 70.4% | viability, T/C [9] 32.7% | viability, T/C [10] 15.7% | viability, T/C [13] 101% | viability, T/C [14] 70.7% | viability, T/C [15] 40.5% | viability, T/C [16] 13.9% | viability, T/C [19] 97.9% | viability, T/C [20] 72.4% | viability, T/C [21] 35.6% | viability, T/C [22] 16.3% | viability, T/C [23] 11.7% | viability, T/C [25] 97.2% | viability, T/C [26] 72.7% | viability, T/C [27] 41% | viability, T/C [28] 17.8% | viability, T/C [29] 11.1% | viability, T/C [31] 87.7% | viability, T/C [32] 67.8% | viability, T/C [33] 39.7% | viability, T/C [34] 16%
188 nM: IC50 (second compound 0.1 µM)
210 nM: IC50 (second compound 0.316 µM)
203 nM: IC50 (second compound 1 µM)
active: viability, T/C [5] 11.3% | viability, T/C [6] 6.63% | viability, T/C [11] 8.49% | viability, T/C [12] 6.23% | viability, T/C [17] 10.9% | viability, T/C [18] 7.23% | viability, T/C [24] 7.1% | viability, T/C [30] 7.14% | viability, T/C [35] 11.5% | viability, T/C [36] 6.9%
199 nM: IC50 (second compound 0.0316 µM)
204 nM: IC50 (second compound 10 µM)

COc1ccc([C@@H](O)c2cc(-c3ncnc4cc(N5CCOCC5)ccc34)c(F)cc2Cl)nn1 + CN(C)c1ccc(Nc2c3ccc(NC(=O)CCN4CCCC4)cc3nc3cc(NC(=O)CCN4CCCC4)ccc23)cc1
inactive: viability, T/C [1] 106% | viability, T/C [2] 103% | viability, T/C [3] 106% | viability, T/C [4] 105% | viability, T/C [5] 91.9% | viability, T/C [6] 74.5% | viability, T/C [7] 107% | viability, T/C [8] 111% | viability, T/C [9] 100% | viability, T/C [10] 108% | viability, T/C [11] 95.6% | viability, T/C [12] 71.5% | viability, T/C [13] 109% | viability, T/C [14] 101% | viability, T/C [15] 104% | viability, T/C [16] 99.7% | viability, T/C [17] 93% | viability, T/C [18] 70.7% | viability, T/C [19] 103% | viability, T/C [20] 101% | viability, T/C [21] 108% | viability, T/C [22] 111% | viability, T/C [23] 97.6% | viability, T/C [24] 78.9% | viability, T/C [25] 104% | viability, T/C [26] 99.3% | viability, T/C [27] 106% | viability, T/C [28] 102% | viability, T/C [29] 90.5% | viability, T/C [30] 83.3% | viability, T/C [31] 110% | viability, T/C [32] 93.6% | viability, T/C [33] 98.5% | viability, T/C [34] 97.7% | viability, T/C [35] 77% | viability, T/C [36] 64.2%
> 10000 nM: IC50 (second compound 0.0316 µM) | IC50 (second compound 0.1 µM) | IC50 (second compound 0.316 µM) | IC50 (second compound 1 µM) | IC50 (second compound 3.16 µM) | IC50 (second compound 10 µM)

O=C(NO)c1cnc(N2CCN(S(=O)(=O)c3ccc4ccccc4c3)CC2)nc1 + CN(C)c1ccc(Nc2c3ccc(NC(=O)CCN4CCCC4)cc3nc3cc(NC(=O)CCN4CCCC4)ccc23)cc1
191 nM: IC50 (second compound 0.1 µM)
inactive: viability, T/C [1] 121% | viability, T/C [2] 105% | viability, T/C [7] 107% | viability, T/C [8] 108% | viability, T/C [13] 108% | viability, T/C [14] 103% | viability, T/C [19] 104% | viability, T/C [20] 110% | viability, T/C [25] 103% | viability, T/C [26] 110% | viability, T/C [31] 102% | viability, T/C [32] 107%
188 nM: IC50 (second compound 0.0316 µM)
190 nM: IC50 (second compound 1 µM)
active: viability, T/C [3] 4.84% | viability, T/C [4] 0.29% | viability, T/C [5] 0.27% | viability, T/C [6] 0.29% | viability, T/C [9] 5.35% | viability, T/C [10] 0.26% | viability, T/C [11] 0.22% | viability, T/C [12] 0.25% | viability, T/C [15] 4.36% | viability, T/C [16] 0.25% | viability, T/C [17] 0.21% | viability, T/C [18] 0.23% | viability, T/C [21] 5.11% | viability, T/C [22] 0.26% | viability, T/C [23] 0.2% | viability, T/C [24] 0.22% | viability, T/C [27] 4.25% | viability, T/C [28] 0.25% | viability, T/C [29] 0.22% | viability, T/C [30] 0.24% | viability, T/C [33] 6.02% | viability, T/C [34] 0.26% | viability, T/C [35] 0.93% | viability, T/C [36] 0.25%
186 nM: IC50 (second compound 0.316 µM)
189 nM: IC50 (second compound 3.16 µM) | IC50 (second compound 10 µM)

— PubChem BioAssay AID2060485 (Molecular Pharmacology Branch, DTP, NCI, 2025)
